Patent US20210196725A1, “TREATMENT OF RELAPSED FOLLICULAR LYMPHOMA” (MEI Pharma, Inc., priority 2018, published 2021)
Marks after values point to notes of the source that are not given here.

Columns and labels:
[1] = tested on: patients with follicular lymphoma (FL); assay: Phase 1b study of Compound A35 alone or with rituximab: disease response in follicular lymphoma patients; format: in vivo, human
Description: In an ongoing Phase 1b study, patients with relapsed B-cell malignancies are administered Compound A35 either as a single agent or in combination with the anti-CD20 antibody rituximab (Rituxan®). A total of 90 subjects have been enrolled in the study to date: • 31 subjects enrolled in a dose escalation cohort of Compound A35 administered as a single agent at a daily dose of 60, 120, and 180 mg; • 21 subjects enrolled in an ongoing expansion cohort of Compound A35 administered as a single agent at 60 mg/day, either on a daily continuous schedule (CS) only or on a daily dosing followed by a switch to an intermittent dosing schedule […] beginning in Cycle 3. • 38 subjects enrolled in a cohort of Compound A35 at 60 mg/day on a CS or IS dosing plus infusional rituximab at a dose of 375 mg/m^2 administered for a total of 8 doses in 6 months
Patients with FL were treated with Compound A35 either alone (N=40) or in combination with the anti-CD20 antibody rituximab (N=14). Most patients in the rituximab combination cohort received Compound A35 by intermittent schedule (IS) after 2 cycles of daily dosing of Compound A35.
(§1) Methods: Patients with ECOG ≤2, no prior PI3K therapy and progression of disease (POD) after ≥1 prior therapy were initially enrolled in a dose escalation phase (60-180 mg) then in 60 mg expansion cohorts as monotherapy or in combination with rituximab. Treatment is given in 28-day cycles and continued until POD or unacceptable toxicity. Compound A35 was given initially on a continuous daily dosing schedule. An intermittent dosing schedule on days 1-7 of a 28-day cycle was then evaluated after 2 cycles of daily dosing, or ≥3 cycles of daily dosing to reduce the risk of immune-related adverse events. For this analysis the intermittent schedule (IS) group is defined as patients who received Compound A35 alone or with rituximab daily for 2 cycles then switched to an intermittent schedule of 1 week per cycle, and the continuous schedule (CS) group is defined as patients who never switched to intermittent dosing or switched to intermittent dosing in cycle 4 or later cycles. Toxicity on CS is managed by a switch to IS. Progression of disease (POD) on IS is managed by a switch to CS.

murine B-cell tumors = assay: Retention in murine B-cell tumors (FIG. 4); format: in vivo; settings: compared to idelalisib (FIG. 4)
[2] = tested on: patients with follicular lymphoma (FL); assay: Phase 1b study: patient disposition on continuous (CS) or intermittent (IS) schedule; format: in vivo, human
Description: as §1

[3] = Tumor exposure of Compound A35 (FIG. 3); format: in vivo; settings: over a 4-hour and 24-hour period (FIG. 3)
[4] = tested on: patients with follicular lymphoma (FL); assay: Phase 1b study: patients with adverse events of special interest (AESI); format: in vivo, human
Description: as §1

[5] = CS Group (N = 25), Compound A35 alone arm
[6] = CS Group (N = 31), A35 alone or with rituximab
[7] = FL patients, A35 alone or with rituximab
[8] = IS Group (N = 15), Compound A35 alone arm
[9] = IS Group (N = 23), A35 alone or with rituximab
[10] = All Grades, All (N = 40), single agent therapy
[11] = All Grades, CS Group (N = 25), single agent therapy
[12] = All Grades, CS Group (N = 31), A35 alone or with rituximab
[13] = All Grades, IS Group (N = 15), single agent therapy
[14] = All Grades, IS Group (N = 23), A35 alone or with rituximab
[15] = Grade 3, CS Group (N = 31), A35 alone or with rituximab
[16] = Grade 3, IS Group (N = 23), A35 alone or with rituximab
[17] = Related Grade 3, All (N = 40), single agent therapy
[18] = Related Grade 3, CS Group (N = 25), single agent therapy
[19] = Related Grade 3, IS Group (N = 15), single agent therapy

- retention in murine B-cell tumors (murine B-cell tumors): preferential retention
- tumor exposure [3]: preferential tumor exposure
Compound: CN1CCC(c2ccccc2CC(C)(C)Nc2nc(N3CCOCC3)nc(-n3c(C(F)F)nc4ccccc43)n2)CC1 [Compound A35]
- rate of response in POD24 patients ([1]; A35 alone or in combination with a CD20 inhibitor, higher than expected with conventional FL therapy): very high rate of response
- morphologic/metabolic CR ([1]; FL patients with follow-up disease assessment, Compound A35 alone): 20%
- No. (%) of Subjects with a Response ([1]; No POD24, Total (A35 alone and A35 + rituximab cohorts)): 16 (67%) No. (%)
- No. (%) of Subjects with a Response ([1]; No POD24 FL subjects evaluable for response): 14 (64%) No. (%)
- No. (%) of Subjects with a Response ([1]; POD24, Total (A35 alone and A35 + rituximab cohorts)): 24 (92%) No. (%)
- No. (%) of Subjects with a Response ([1]; POD24 FL subjects evaluable for response): 16 (100%) No. (%)
- rate of durable responses ([1]; R/R FL): high rate of durable responses
- POD24 subjects with response who had PD ([1]; of 24 POD24 subjects who achieved response): 6 subjects
- Patient Disposition: Adverse event [2, 5]: 3 (12%)
- Patient Disposition: Progressive disease [2, 5]: 4 (16%)
- Patient Disposition: Adverse event [2, 6]: 3 (10%)
- Patient Disposition: Progressive disease [2, 6]: 4 (13%)
- patients discontinued: POD [2, 7]: 9 patients
- patients discontinued: adverse events (AEs) [2, 7]: 4 patients
- Patient Disposition: Adverse event [2, 8]: 1 (7%)
- Patient Disposition: Progressive disease [2, 8]: 0%
- Patient Disposition: Adverse event [2, 9]: 1 (4%)
- Patient Disposition: Progressive disease [2, 9]: 0 (0%)
- AESI: ALT/AST increased [4, 10]: 9 (22.5%)
- AESI: Diarrhea/colitis [4, 10]: 17 (42.5%)
- AESI: Mucositis [4, 10]: 6 (15.0%)
- AESI: Pneumonia/ Pneumonitis [4, 10]: 2 (5.0%)
- AESI: Rash, all types [4, 10]: 12 (30.0%)
- AESI: ALT/AST increased [4, 11]: 6 (24.0%)
- AESI: Diarrhea/colitis [4, 11]: 10 (40.0%)
- AESI: Mucositis [4, 11]: 6 (24.0%)
- AESI: Pneumonia/ Pneumonitis [4, 11]: 2 (8.0%)
- AESI: Rash, all types [4, 11]: 11 (44.0%)
- AESI: ALT/AST increased [4, 12]: 8 (25.8%)
- AESI: Diarrhea/colitis [4, 12]: 11 (35.5%)
- AESI: Mucositis [4, 12]: 6 (19.4%)
- AESI: Pneumonia [4, 12]: 2 (6.5%)
- AESI: Rash, all types [4, 12]: 11 (35.5%)
- AESI: ALT/AST increased [4, 13]: 3 (20.0%)
- AESI: Diarrhea/colitis [4, 13]: 7 (46.7%)
- AESI: Mucositis [4, 13]: 0%
- AESI: Pneumonia/ Pneumonitis [4, 13]: 0%
- AESI: Rash, all types [4, 13]: 1 (6.7%)
- AESI: ALT/AST increased [4, 14]: 7 (30.4%)
- AESI: Mucositis [4, 14]: 1 (4.3%)
- AESI: Pneumonia [4, 14]: 0%
- AESI: Rash, all types [4, 14]: 2 (8.7%)
- AESI: Diarrhea/colitis ([4]; All Grades, IS Group (N = 23), A35 alone or with rituximab, excluded 1 subject with diarrhea after POD and 1 with one-day diarrhea): 11 (47.8%)*
- AESI: ALT/AST increased [4, 15]: 3 (9.7%)
- AESI: Diarrhea/colitis [4, 15]: 5 (16.1%)
- AESI: Mucositis [4, 15]: 1 (3.2%)
- AESI: Pneumonia [4, 15]: 2 (6.5%)
- AESI: Rash, all types [4, 15]: 4 (12.9%)
- AESI: ALT/AST increased [4, 16]: 1 (4.3%)
- AESI: Diarrhea/colitis [4, 16]: 2 (8.7%)
- AESI: Mucositis [4, 16]: 0%
- AESI: Pneumonia [4, 16]: 0%
- AESI: Rash, all types [4, 16]: 0%
- Grade 3 immune-related adverse events ([4]; IS group (N=23) compared to the CS group (N=31)): less common
- AESI: ALT/AST increased [4, 17]: 3 (7.5%)
- AESI: Diarrhea/colitis [4, 17]: 6 (15.0%)
- AESI: Mucositis [4, 17]: 1 (2.5%)
- AESI: Pneumonia/ Pneumonitis [4, 17]: 2 (5.0%)
- AESI: Rash, all types [4, 17]: 4 (10.0%)
- AESI: ALT/AST increased [4, 18]: 3 (12.0%)
- AESI: Diarrhea/colitis [4, 18]: 5 (20.0%)
- AESI: Mucositis [4, 18]: 1 (4.0%)
- AESI: Pneumonia/ Pneumonitis [4, 18]: 2 (8.0%)
- AESI: Rash, all types [4, 18]: 4 (16.0%)
- AESI: ALT/AST increased [4, 19]: 0%
- AESI: Diarrhea/colitis [4, 19]: 1 (6.7%)
- AESI: Mucositis [4, 19]: 0%
- AESI: Pneumonia/ Pneumonitis [4, 19]: 0%
- AESI: Rash, all types [4, 19]: 0%
- incidence of immune-related adverse events (irAEs) ([4]; intermittent schedule (IS)): appears to reduce the incidence
